{
  "source": "patent US20030114415A1",
  "about": "“Compositions and methods for treating and preventing memory impairment using citicoline” (priority 2001, published 2003)",
  "origin": "cited, not measured here",
  "key": {"[1]": {"settings": "rat; 500 mg/kg/day citicoline"}, "[2]": {"system": "stroke and head trauma patients"}, "[3]": {"settings": "human; 1000 mg citicoline per day"}},
  "note": "Where two headings read alike, the source gives them in different places.",
  "data": [
    {"smiles": "C[N+](C)(C)CCOP(=O)(O)OP(=O)([O-])OC[C@H]1O[C@@H](n2ccc(N)nc2=O)[C@H](O)[C@@H]1O", "note": "[citicoline, cytidine-5′-diphosphocholine]", "values": [
      {"measurement": "absorption when administered orally", "setting": "oral", "result": "absorbed almost completely"},
      {"measurement": "bioavailability when administered orally", "setting": "oral compared with intravenous", "result": "approximately the same as when administered intravenously"},
      {"measurement": "plasma choline concentration", "setting": "[1]", "result": 1.5, "unit": "ng/mL"},
      {"measurement": "negative side effects, including dizziness", "setting": "[2]; patients, 500 mg per day", "result": "minimizing any negative side effects"},
      {"measurement": "tolerability", "setting": "[2]; stroke and head trauma patients, 250 mg/day to 1000 mg/day for several weeks", "result": "tolerated citicoline well"},
      {"measurement": "plasma choline concentration", "setting": "[3]", "result": 1.5, "unit": "ng/mL"}
    ]}
  ]
}
